What all share (type): biochemical
One assay addresses T1, HDAC 4 (Homo sapiens, UniProt P56524).
T1 construct: gene HDAC4
As to the kind of experiment: recombinant enzyme fluorogenic assay, Boc-Lys-(Tfa)-AMC substrate. The conditions noted are these: recombinant hdac 4; read-out: YAK540 / IC50 (pIC50 ±SEM) (converted).

A further assay deals with T2, HDAC 6 (Homo sapiens, UniProt Q9UBN7).
T2 construct: gene HDAC6
T2 sequence (Q9UBN7 1-1215): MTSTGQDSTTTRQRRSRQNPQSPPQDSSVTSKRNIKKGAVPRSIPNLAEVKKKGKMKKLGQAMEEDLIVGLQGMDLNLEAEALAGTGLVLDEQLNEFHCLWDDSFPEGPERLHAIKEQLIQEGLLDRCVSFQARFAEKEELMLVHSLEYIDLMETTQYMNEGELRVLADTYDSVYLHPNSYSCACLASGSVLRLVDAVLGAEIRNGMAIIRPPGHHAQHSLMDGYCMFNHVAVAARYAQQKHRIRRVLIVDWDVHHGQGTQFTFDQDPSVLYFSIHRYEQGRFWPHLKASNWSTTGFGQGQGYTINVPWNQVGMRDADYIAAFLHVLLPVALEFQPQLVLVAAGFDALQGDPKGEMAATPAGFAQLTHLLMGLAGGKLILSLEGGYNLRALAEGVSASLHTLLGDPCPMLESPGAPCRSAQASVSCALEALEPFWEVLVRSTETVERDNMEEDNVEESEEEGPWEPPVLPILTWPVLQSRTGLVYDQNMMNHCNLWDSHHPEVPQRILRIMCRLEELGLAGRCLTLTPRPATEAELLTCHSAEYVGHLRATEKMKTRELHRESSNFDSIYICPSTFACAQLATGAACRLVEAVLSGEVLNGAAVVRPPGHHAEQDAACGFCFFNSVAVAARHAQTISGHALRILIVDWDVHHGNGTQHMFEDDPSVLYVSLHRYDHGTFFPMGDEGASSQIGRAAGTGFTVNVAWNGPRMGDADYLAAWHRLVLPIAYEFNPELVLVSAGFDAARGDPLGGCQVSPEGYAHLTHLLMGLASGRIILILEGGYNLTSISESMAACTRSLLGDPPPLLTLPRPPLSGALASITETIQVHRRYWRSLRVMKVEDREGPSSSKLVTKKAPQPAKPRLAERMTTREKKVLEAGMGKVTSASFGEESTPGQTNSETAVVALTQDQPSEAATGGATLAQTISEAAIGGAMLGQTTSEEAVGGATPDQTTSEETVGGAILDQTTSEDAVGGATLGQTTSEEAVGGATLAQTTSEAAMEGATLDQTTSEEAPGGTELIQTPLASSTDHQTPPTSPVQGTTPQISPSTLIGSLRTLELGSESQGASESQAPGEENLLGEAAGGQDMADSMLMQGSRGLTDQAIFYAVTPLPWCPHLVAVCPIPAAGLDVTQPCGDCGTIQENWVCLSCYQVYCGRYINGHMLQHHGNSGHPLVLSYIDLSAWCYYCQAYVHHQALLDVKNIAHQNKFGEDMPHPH
The experiment in a line: recombinant enzyme fluorogenic assay, Boc-Lys(Ac)-AMC substrate. The conditions noted are these: recombinant hdac 6; read-out: YAK540 / IC50 (pIC50 ±SEM) (converted).

The next assay concerns the target T3, HDAC 2 (Homo sapiens, UniProt Q92769).
T3 construct: gene HDAC2
The description is as above. The conditions noted are these: recombinant hdac 2; read-out: YAK540 / IC50 (pIC50 ±SEM) (converted).

In a further assay the target is T4, HDAC 8 (Homo sapiens, UniProt Q9BY41).
T4 construct: gene HDAC8
T4 sequence (Q9BY41 1-377): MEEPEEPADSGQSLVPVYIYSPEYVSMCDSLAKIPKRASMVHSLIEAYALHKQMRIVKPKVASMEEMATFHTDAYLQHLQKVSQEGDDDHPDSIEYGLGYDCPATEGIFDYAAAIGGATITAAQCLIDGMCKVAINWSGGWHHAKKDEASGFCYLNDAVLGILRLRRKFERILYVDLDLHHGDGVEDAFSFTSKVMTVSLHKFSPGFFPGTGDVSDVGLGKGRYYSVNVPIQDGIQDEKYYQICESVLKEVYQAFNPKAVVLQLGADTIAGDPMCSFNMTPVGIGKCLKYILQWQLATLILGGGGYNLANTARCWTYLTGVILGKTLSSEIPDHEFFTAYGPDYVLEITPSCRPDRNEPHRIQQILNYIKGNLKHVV
As to the kind of experiment: recombinant enzyme fluorogenic assay, Boc-Lys-(Tfa)-AMC substrate. The note with it: recombinant hdac 8; read-out: YAK540 / IC50 (pIC50 ±SEM) (converted).

T1 sequence (P56524 whole entry): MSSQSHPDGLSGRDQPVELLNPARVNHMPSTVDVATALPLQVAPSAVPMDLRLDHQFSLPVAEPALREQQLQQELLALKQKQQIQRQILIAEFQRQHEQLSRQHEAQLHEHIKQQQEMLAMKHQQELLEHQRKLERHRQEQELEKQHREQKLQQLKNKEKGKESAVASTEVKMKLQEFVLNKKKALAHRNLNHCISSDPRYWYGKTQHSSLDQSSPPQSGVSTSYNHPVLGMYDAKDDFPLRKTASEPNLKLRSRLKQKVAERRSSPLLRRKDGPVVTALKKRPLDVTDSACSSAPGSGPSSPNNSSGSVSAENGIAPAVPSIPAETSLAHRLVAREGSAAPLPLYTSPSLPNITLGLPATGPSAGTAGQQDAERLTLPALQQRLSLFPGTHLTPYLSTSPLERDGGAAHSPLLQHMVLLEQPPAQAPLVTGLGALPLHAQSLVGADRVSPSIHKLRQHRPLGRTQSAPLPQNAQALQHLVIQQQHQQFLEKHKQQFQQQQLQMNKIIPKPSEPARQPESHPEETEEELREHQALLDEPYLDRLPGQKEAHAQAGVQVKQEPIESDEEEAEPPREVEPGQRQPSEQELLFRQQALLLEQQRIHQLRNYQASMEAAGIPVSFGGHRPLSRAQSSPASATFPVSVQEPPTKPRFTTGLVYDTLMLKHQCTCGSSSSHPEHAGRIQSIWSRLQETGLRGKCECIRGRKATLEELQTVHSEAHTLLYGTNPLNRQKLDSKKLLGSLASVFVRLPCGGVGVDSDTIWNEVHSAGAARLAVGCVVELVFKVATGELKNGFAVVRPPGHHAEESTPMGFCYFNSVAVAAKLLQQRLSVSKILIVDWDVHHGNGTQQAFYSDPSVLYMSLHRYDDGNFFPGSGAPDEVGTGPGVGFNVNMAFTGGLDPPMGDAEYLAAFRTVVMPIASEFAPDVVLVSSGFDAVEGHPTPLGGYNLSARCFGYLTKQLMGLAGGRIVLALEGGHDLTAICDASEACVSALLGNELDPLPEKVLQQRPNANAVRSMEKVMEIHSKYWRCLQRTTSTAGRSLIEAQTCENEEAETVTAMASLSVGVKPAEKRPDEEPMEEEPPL
T3 sequence (Q92769 whole entry): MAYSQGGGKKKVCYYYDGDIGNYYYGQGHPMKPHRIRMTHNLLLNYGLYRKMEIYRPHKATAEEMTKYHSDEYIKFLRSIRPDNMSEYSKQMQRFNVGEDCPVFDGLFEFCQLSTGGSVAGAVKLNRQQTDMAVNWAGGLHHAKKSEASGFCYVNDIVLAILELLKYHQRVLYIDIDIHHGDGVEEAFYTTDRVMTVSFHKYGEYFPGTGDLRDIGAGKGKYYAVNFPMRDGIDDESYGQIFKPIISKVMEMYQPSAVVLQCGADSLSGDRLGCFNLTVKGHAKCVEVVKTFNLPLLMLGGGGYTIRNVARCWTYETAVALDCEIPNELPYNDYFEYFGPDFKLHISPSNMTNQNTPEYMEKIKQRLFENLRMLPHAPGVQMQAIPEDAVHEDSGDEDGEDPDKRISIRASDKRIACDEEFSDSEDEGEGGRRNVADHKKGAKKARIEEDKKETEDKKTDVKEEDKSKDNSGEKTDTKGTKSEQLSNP

`O=C(NOCCN1CCCCC1)c1ccc(-c2noc(C(F)(F)F)n2)cc1` [YAK540]: the IC50 on HDAC 4 is 114 nM; on HDAC 6 it was 11.4 µM; on HDAC 2, 30.2 µM; at HDAC 8 it was 9.39 µM.
